The values that follow come from PubChem BioAssay AID588712 (The Scripps Research Institute Molecular Screening Center, 2011).

Values joined by “and” are separate entries in the source; they are usually repeats but may differ in a detail not shown here. Equal entries are not always repeated. Active and inactive are the calls of the source. How the calls were made is not given here.

For the test, the target named is Insulin-degrading enzyme (Homo sapiens) (UniProt P14735). The test can be described thus: IDE inhibition in live cells – cell-based, fluorescence polarization, late-stage follow-up (AID 588712). As to conditions: cell-based IDE activity. (In general: Fluorescence polarisation rises when a labelled molecule tumbles more slowly, as on binding a larger partner.)
Chain of Insulin-degrading enzyme (Homo sapiens) (P14735 whole entry, looked up): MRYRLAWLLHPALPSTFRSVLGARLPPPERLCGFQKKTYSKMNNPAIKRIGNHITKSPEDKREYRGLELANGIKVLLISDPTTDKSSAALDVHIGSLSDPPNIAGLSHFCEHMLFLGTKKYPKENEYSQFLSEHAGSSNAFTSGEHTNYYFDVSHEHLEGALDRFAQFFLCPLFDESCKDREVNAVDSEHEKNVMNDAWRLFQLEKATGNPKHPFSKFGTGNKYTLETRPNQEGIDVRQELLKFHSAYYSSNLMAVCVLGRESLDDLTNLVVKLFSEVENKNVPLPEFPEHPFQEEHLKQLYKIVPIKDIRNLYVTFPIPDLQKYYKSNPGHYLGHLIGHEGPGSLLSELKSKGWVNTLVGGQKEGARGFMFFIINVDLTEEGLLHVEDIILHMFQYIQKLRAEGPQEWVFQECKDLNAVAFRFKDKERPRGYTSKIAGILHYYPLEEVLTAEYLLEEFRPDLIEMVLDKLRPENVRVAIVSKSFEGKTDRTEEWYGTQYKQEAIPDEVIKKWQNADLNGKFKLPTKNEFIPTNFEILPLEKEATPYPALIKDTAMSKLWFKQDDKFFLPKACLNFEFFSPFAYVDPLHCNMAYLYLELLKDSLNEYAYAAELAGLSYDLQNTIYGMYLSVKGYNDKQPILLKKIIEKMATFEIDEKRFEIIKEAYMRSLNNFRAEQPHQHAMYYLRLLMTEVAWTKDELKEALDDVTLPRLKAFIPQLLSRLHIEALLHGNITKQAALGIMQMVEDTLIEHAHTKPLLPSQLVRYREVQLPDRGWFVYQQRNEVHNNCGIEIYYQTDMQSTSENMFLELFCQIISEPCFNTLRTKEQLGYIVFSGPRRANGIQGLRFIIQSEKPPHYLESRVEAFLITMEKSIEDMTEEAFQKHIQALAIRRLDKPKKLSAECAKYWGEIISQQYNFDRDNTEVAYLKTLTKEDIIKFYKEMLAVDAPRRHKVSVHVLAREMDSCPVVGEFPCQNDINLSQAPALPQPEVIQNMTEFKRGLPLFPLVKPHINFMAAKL
Consider `Cn1c(=O)c(C(=O)CN2CCCc3ccccc32)c(N)n(Cc2ccccc2)c1=O`, for which the IC50 (usually the point on the concentration scale where inhibition reaches its midpoint) was > 54.7 µM (inactive).
Consider `O=C(Nc1cccc(C(F)(F)F)c1)c1csc(Cc2cccc(C(F)(F)F)c2)n1`, for which the IC50 is > 54.7 µM (inactive).
Take `Cc1ccc(-c2nc(C(=O)Nc3cccc(C(F)(F)F)c3)cs2)cc1`: the IC50 was > 54.7 µM (inactive).
Regarding `Cc1c(CCC(=O)NCCCn2ccnc2)c(=O)oc2cc3oc4c(c3cc12)CCCC4`, the IC50 is 7.32 µM.
The same measure for `Cc1ccc(NC(=O)CSc2nnc(-c3cccc(Cl)c3)n2Cc2ccco2)c(C)c1`: > 54.7 µM (inactive).
In the case of `O=C(Nc1ccc2oc(-c3cccnc3)nc2c1)c1ccc2c(c1)OCCO2`, the IC50 is > 54.7 µM (inactive).
Turning to `Cc1cccc(-c2nnc(SCc3nc4ccccc4[nH]3)n2Cc2ccco2)c1`, the IC50 was 9.21 µM and 8.91 µM.
Consider `COc1cccc(-c2nnc(SCc3nc4ccccc4[nH]3)n2Cc2ccco2)c1`, for which the IC50 is 9.38 µM.
For `O=C(Nc1cccc(C(F)(F)F)c1)c1csc(-c2ccncc2)n1`, the IC50 was 5.74 µM.
The same measure for `O=C(Nc1cc(C(F)(F)F)cc(C(F)(F)F)c1)c1csc(-c2ccncc2)n1`: > 54.7 µM (inactive); for `COc1ccc(-c2nc(C(=O)Nc3cccc(C(F)(F)F)c3)cs2)cc1`: > 54.7 µM (inactive).
With `COc1ccc(C(=O)N2CCN(C(=O)C3COc4ccccc4O3)CC2)cc1OC` (stereo unspecified) the figure was > 54.7 µM (inactive).
On to `O=C(Nc1cccc(C(F)(F)F)c1)c1csc(-c2cccc(C(F)(F)F)c2)n1`, for which the IC50 was > 54.7 µM (inactive).
Take `Cc1ccc(C)c(N2C(=N)S/C(=C\c3ccc(-c4ccccc4C(=O)O)o3)C2=O)c1`: the IC50 is > 54.7 µM (inactive).
With `Clc1cccc(-c2nnc(SCc3nc4ccccc4[nH]3)n2-c2ccccc2)c1` the figure was > 54.7 µM (inactive).
With `Cc1nc(-c2cccnc2)sc1C(=O)Nc1cccc(C(F)(F)F)c1`, the IC50 is > 54.7 µM (inactive).
On to `Cn1c(SCc2nc3ccccc3[nH]2)nnc1-c1cccc(Cl)c1`, for which the IC50 is > 54.7 µM (inactive).
For `CCN(CC)c1ccc(/C=C2\C(=N)N3N=C(CC(=O)N4CCOCC4)SC3=NC2=O)cc1`, the IC50 result was “inactive”.
Regarding `O=C(Nc1cccc(C(F)(F)F)c1)c1csc(-c2ccccc2)n1`, the IC50 is > 54.7 µM (inactive).
Turning to `O=C(CSc1nnc(-c2cccc(Cl)c2)n1Cc1ccco1)Nc1ccc2c(c1)OCCO2`, the IC50 was > 54.7 µM (inactive).
With `CC(Sc1nnc(-c2cccnc2)n1-c1ccccc1F)C(=O)N1CCCc2ccccc21` (stereo unspecified) the figure was > 54.7 µM (inactive); with `O=c1c2ccccc2sn1-c1cc(S(=O)(=O)N2CCOCC2)ccc1N1CCOCC1`, 2.17 µM; with `Nc1c(C(=O)Nc2nccs2)sc2nc(-c3cccs3)cc(C(F)(F)F)c12`, > 54.7 µM (inactive).
With `COc1ccc(NC(=O)CSc2nnc(CN3CCOCC3)n2C)cc1Cl` the figure was > 54.7 µM (inactive); with `COc1cc(/C=C2\SC(=S)N(NC(C)=O)C2=O)ccc1OC(=O)c1ccco1`, “inactive”.
The same measure for `O=C(CSc1nnc(-c2cccc(Cl)c2)n1Cc1ccco1)Nc1ccccc1C(F)(F)F`: > 54.7 µM (inactive).
Turning to `O=C(C1CC1)N1CCN(c2ccnc3cc(Cl)ccc23)CC1`, the IC50 is > 54.7 µM (inactive).
With `CCOc1ccc2[nH]c3c(N4CCN(C(=O)c5ccco5)CC4)ncnc3c2c1` the entry was “inactive”; with `Clc1cccc(-c2nnc(SCc3nc4ccccc4[nH]3)n2Cc2ccco2)c1`, 3.09 µM; with `O=C(CSc1nnc(-c2cccc(Cl)c2)n1Cc1ccco1)c1ccc2ccccc2c1`, > 54.7 µM (inactive).
With `O=C(CSc1nnc(-c2cccc(Cl)c2)n1Cc1ccco1)Nc1ccc2cn[nH]c2c1` the figure was > 54.7 µM (inactive).
